The text below walks through data of US8143274B2, “1-(2H)-isoquinolone derivative” (Chugai Seiyaku Kabushiki Kaisha, priority 2004, dated 2012).

Test [1] concerns human colon cancer cell line HCT116. The test is described as follows: Measurement of cell growth inhibitory activity (Cell Counting Kit-8). It is filed as cell-based. The following applies: HCT-116, 96 h, HCT116, 2,000 cells/well, cultured 4 days. As to the method:
[Measurement of Cell Growth Inhibitory Activity]
Several representative examples of the compound group of the present invention were measured in terms of cell growth inhibitory activity.
Cancer cell growth inhibitory activity was measured using Cell Counting Kit-8 manufactured by Dojindo Laboratories. The human colon cancer cell line HCT116 obtained from American Type Culture Collection (Virginia, U.S.A) was inoculated in a 96-well culture plate at a concentration of 2,000 cells/well. Thereafter, a certain concentration of compound was added thereto, and the obtained mixture was then cultured at 37° C. in 5% CO2 for 4 days. On the 4th day of the culture, a Cell Counting Kit-8 solution was added to the culture product, and absorbance (measurement wavelength: 450 nm; reference wavelength: 615 nm) was measured in accordance with protocols included with the kit. Thereafter, 50% growth inhibitory concentration (IC50) was calculated.
(Tetrazolium assays rely on reduction of a dye to a coloured formazan, in cell work by metabolically active cells.)

Test [2] concerns human colon cancer cell line HCT116 transplanted subcutaneously. In words: Measurement of antitumor effect in HCT116 tumor-bearing nude mouse. In kind it is in vivo, BALB/c nude mouse. As to conditions: oral, administered twice (initiation date and 3 days after). As to the method:
[Measurement of Antitumor Effect]
A representative example of the compound group of the present invention was measured in terms of antitumor effect.
Such antitumor effect was examined, using a tumor-bearing mouse produced by transplanting the human colon cancer cell line HCT116 obtained from American Type Culture Collection (Virginia, U.S.A) into the inguinal subcutis of a BALB/c nude mouse purchased from Charles River Laboratories Japan, Inc. The purchased nude mouse was quarantined for 1 week. Thereafter, approximately 5×10^6 HCT116 cells were transplanted subcutaneously. When the size of a tumor thereof became about 200 mm^3, the mouse was subjected to the present experiment.
Each compound was dissolved or suspended in a solution to be administered, and 0.5 ml of the solution was orally administered. Such administration was carried out twice in total, that is, on the initiation date of administration and 3 days after the administration. The antitumor effect was calculated as a tumor growth inhibition by comparing the solution administration group with a control group in terms of tumor growth. Tumor growth inhibition(TGI)=(1−the tumor growth amount of agent-treated group/the tumor growth amount of control group)×100(%)

SMILES strings stand for the structures.

Consider `CCOC(=O)Nc1ccc2cc(-c3ccccc3C(F)(F)F)[nH]c(=O)c2c1` [Compound 61, ethyl[1-oxo-3-(2-trifluoromethylphenyl)-1,2-dihydroisoquinolin-7-yl]carbamate], for which, in test [1], the midpoint of inhibition, the IC50, lay at 21 nM. Moreover, in test [2] (dose 200 mg/kg), the “TGI (%) on day 7” value was 73%.
Molecule `O=c1[nH]c(-c2ccccc2)cc2ccc(N3CCC(O)C3)cc12` (stereo not drawn) [Compound 36, 7-(3-hydroxypyrrolidin-1-yl)-3-phenyl-2H-isoquinolin-1-one] displayed an IC50 in test [1] of 18 nM.
Regarding `O=c1[nH]c(-c2ccccc2)cc2ccc(N3CCOCC3)cc12` [Compound 8, 7-morpholin-4-yl-3-phenyl-2H-isoquinolin-1-one], in test [1], the IC50 came out at 28 nM. For the same molecule, the “TGI (%) on day 7” value in test [2] (dose 12.5 mg/kg) stood at 96%.
For `O=c1[nH]c(-c2ccccc2C(F)(F)F)cc2ccc(N3CCC(O)CC3)cc12` [Compound 29, 7-(4-hydroxypiperidin-1-yl)-3-(2-trifluoromethylphenyl)-2H-isoquinolin-1-one], the IC50 in test [1] came to 52 nM.
The same measure, in the same setting: the figure for `O=c1[nH]c(-c2ccccc2)cc2ccc(N3CCC(CO)CC3)cc12` [Compound 21, 7-(4-hydroxymethylpiperidin-1-yl)-3-phenyl-2H-isoquinolin-1-one] is 20 nM.
Regarding `O=c1[nH]c(-c2ccccc2C(F)(F)F)cc2ccc(N3CCCCC3)cc12` [Compound 10, 7-piperidin-1-yl-3-(2-trifluoromethylphenyl)-2H-isoquinolin-1-one], half-maximal inhibition in test [1] (IC50) was put at 97 nM. In addition, the “TGI (%) on day 7” value in test [2] (dose 50 mg/kg) is reported as 91%.

By IC50 is commonly meant the midpoint of a concentration-inhibition curve. Higher therefore signals weaker potency.
